Data as given in patent US8211912B2, “Compositions and methods for effecting NAD+ levels using a nicotinamide phosphoribosyl tranferase inhibitor” (Gemin X Pharmaceuticals Canada, priority 2007, dated 2012).
Values joined by “and” are separate entries in the source; they are usually repeats but may differ in a detail not shown here. Identical values can stand only once. Like-named read-outs stand apart in the source and are kept apart here.

Legend:
[1] = system: DMS-114 human small cell lung carcinoma cells; test: Sensitization to DNA damaging chemotherapeutic agents, relative ATP viability, 3 days; format: cell-based; settings: for Fold change (IC50 in DMS-114 cells): without vs with 0.75 nM Compound 1
Method: (§3) Cells were plated in logarithmic growth phase at 500-20,000 cells per well in 96-well clear bottom plates (Corning; Corning, N.Y.) and cultured for 14 to 16 hours prior to the start of drug treatment. Serial dilutions of Compound 2 and Compound 1 were made in DMSO, diluted 1:50 in RPMI-1640 (Hyclone; Logan, Utah) and then added to tissue culture media at a final concentration of 0.2% DMSO. […] Relative ATP levels were determined by the bioluminescent measuring of cellular ATP levels in each culture well with the ViaLight-HS High Sensitivity Cytotoxicity and Cell Proliferation BioAssay Kit (Cambrex Bioproducts, Cat. No. LT07-311; Charles City, Iowa) according to manufacturer's instructions. Briefly, a cell permeabilizing reagent was added to each culture well in media at the time of viability determination, allowing free ATP to be released from viable cells in the culture. Addition of luciferase to the mixture catalyzes the release of light proportional to the amount of free ATP present, which can then be quantified in a Centro LB 960 luminometer (EG&G Berthold; Oak Ridge, Tenn.); the level of ATP is generally directly proportional to the viability of the cells.
(§4) Sigmoidal dose response curves were then generated using non-linear regression analysis of variable slope by Prism Version 4.00 for Windows (GraphPad Software, Inc.; San Diego, Calif.) and IC50 values calculated.
(§5) The IC50 values for the treatment with the DNA damaging agent were calculated relative to control cells that were treated with DMSO only.

[2] = system: Jurkat human T cell leukemia cells; test: as above; settings: for Fold change (IC50 in Jurkat cells): without vs with 0.5 nM Compound 1
Method: as §3, §4, §5

[3] = Additional combination experiments with Compound 1; format: cell-based
[4] = Nicotinic acid as antidote to a lethal 24 h infusion of Compound 2 in non-tumor-bearing mice; settings: Compound 2 650 mg/kg 24 h infusion
Method: CB17 SCID female mice, 5 mice per group, who were not bearing tumors were administered a lethal dose of Compound 2 as a 24 h infusion of Compound 2 at 650 mg/kg. Thereafter, mice were infused with saline for 24 h (Group 1); a niacin solution (12 mg/mL) for 4 hours at a dose of 90 mg/m2/h (30 mg/kg/h) followed by saline for another 20 h at a flow rate of 50 μL/h (Group 2); or a niacin solution (12 mg/mL) for 24 hours at a dose of 90 mg/m^2/h (30 mg/kg/h) with a flow rate of 50 μL/h.

[5] = system: human multiple myeloma IM-9 cancer cells; test: Xenograft of a cancer not deficient in nicotinic acid pathway; format: in vivo, CB17 SCID mice
Method: (§1) Human multiple myeloma IM-9 cancer cells were maintained in RPMI (Hyclone, Utah, USA) supplemented with 10% inactivated fetal bovine serum (Bio-Whittaker; MD, USA) and 1% penicillin-streptomycin-L-Glutamine (Gibco; NY, USA), under 5% CO2 at 37° C. IM-9 cells were transplanted subcutaneously into the flank of female mice. Each mouse was inoculated with a suspension of 10×10^6 tumors cells per 100 μl in PBS on day zero.
Treatments started on day eight after IM-9 cells transplantation. […] The control group was treated with vehicle (0.9% NaCl) alone for 104 hours. […] Compound 2 was prepared fresh for dosing and formulated in a vehicle solution of 10 mM citrate buffer at pH 4.8.
Observation continued for 23 days after initial tumor implantation.

[6] = system: Human Fibrosarcoma HT1080 cancer cells; test: Xenograft of a cancer deficient in nicotinic acid pathway; format: in vivo, mice
Method: as §1, with “Fibrosarcoma HT1080” for “multiple myeloma IM-9”, “(Bio-Whittaker, Md.,” for “(Bio-Whittaker; MD,”, “HT1080” for “IM-9”, “1×10^6” for “10×10^6”
Treatments started on day fifteen after HT1080 cells transplantation. […] The control group was treated with vehicle (0.9% NaCl) alone for 104 hours. Treatments were conducted using Lomir External pump—Model 220 with a flow rate of 50 μL/hr (˜2.5 mL/kg/hr) and equipped with 1 cc syringes for treated groups or equipped with 10 cc syringes for the control group. Compound 2 was prepared fresh for dosing and formulated in a vehicle solution of 10 mM citrate buffer at pH 4.8.
Observation continued for 22 days after initial tumor implantation.

[7] = Nicotinic acid pre-treatment against lethal intramuscular Compound 2 in non-tumor-bearing mice
[8] = target: human NMPRT (Homo sapiens, UniProt P43490); settings: cited from earlier work
Chain of human NMPRT (P43490 whole entry): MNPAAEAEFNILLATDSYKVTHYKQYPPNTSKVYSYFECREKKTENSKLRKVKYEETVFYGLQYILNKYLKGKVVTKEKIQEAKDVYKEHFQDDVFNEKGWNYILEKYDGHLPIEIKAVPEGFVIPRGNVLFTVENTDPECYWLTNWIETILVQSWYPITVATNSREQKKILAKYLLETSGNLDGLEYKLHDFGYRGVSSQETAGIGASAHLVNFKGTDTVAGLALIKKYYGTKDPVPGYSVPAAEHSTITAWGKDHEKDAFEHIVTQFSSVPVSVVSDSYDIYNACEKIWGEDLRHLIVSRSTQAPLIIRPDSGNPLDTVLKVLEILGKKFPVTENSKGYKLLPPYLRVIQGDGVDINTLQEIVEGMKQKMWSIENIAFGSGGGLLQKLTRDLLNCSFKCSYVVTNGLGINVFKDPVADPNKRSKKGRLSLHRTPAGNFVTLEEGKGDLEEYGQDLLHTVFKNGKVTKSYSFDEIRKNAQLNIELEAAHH

[9] = system: HeLa cells; settings: Compound 1 20 nM, NM contained 0.1% NA
Method: (§2) Viability was measured after 72 hours by ViaLight assay (assessing ATP levels). […] Each bar is the mean±SD of quadruplicate samples. Each figure is representative of two independent experiments.
Viability was measured after 72 hours by ViaLight assay. […] Each point represents the mean and error bars the SD of triplicate samples. […] The concentration of nicotinamide in RPMI 1640 media was […]. HeLa cells were transiently transfected with vector (pcDNA3) or a plasmid expressing a flag-tagged yeast PNC1 gene (pcFLAG-PNC1). […] Relative viability was assessed after 72 hours by ViaLight assay.

[10] = system: NAD^+ levels in HeLa cells; settings: Compound 1 100 nM, 10 mM nicotinic acid
Method: as §2

[11] = system: NF-κB regulated gene expression in HeLa cells; settings: Compound 1 100 nM, 10 mM nicotinic acid, 24 hrs then 4 hours TNFα
Method: as §2

[12] = system: SW982 synovial sarcoma cell line; settings: 0.01, 0.1 and 1 mM nicotinic acid
Text: In FIGS. 10 and 11, fraction of cell survived is indicated by the vertical axis (labeled as “% control”).

[13] = system: cancer cell lines
[14] = system: Hs821.T giant cell sarcome; settings: 0.01, 0.1 and 1 mM nicotinic acid
[15] = system: U-2OS osteosarcome; settings: 0.01, 0.1 and 1 mM nicotinic acid
[16] = system: HT1080 fibrosarcoma; settings: 0.01, 0.1 and 1 mM nicotinic acid
[17] = system: GCT MFH histiocytoma; settings: 0.01, 0.1 and 1 mM nicotinic acid
[18] = system: SW1353 chondrosarcoma; settings: 0.01, 0.1 and 1 mM nicotinic acid
[19] = system: A204 rhabdomyosarcoma; settings: 0.01, 0.1 and 1 mM nicotinic acid
[20] = system: MG-63 osteosarcoma; settings: 0.01, 0.1 and 1 mM nicotinic acid
[21] = system: IMR32 (neuroblastoma); settings: 0.01, 0.1 and 1 mM nicotinic acid
[22] = system: T98G (glioblastoma); settings: 0.01, 0.1 and 1 mM nicotinic acid
[23] = system: colon cancer cell line Colo320DM; settings: the only one of fourteen other carcinomas
[24] = read-out: IC50 in DMS-114 cells (μM), DNA damaging chemotherapeutic agent + 0.75 nM Compound 1, with 0.75 nM Compound 1, 3 days, relative to Compound 1 only control
[25] = read-out: IC50 in Jurkat cells (μM), DNA damaging chemotherapeutic agent + 0.5 nM Compound 1, with 0.5 nM Compound 1, 3 days, relative to Compound 1 only control
[26] = Homo sapiens, DMS-114, 72 h, read-out: IC50 in DMS-114 cells (μM), DNA damaging chemotherapeutic agent + No Compound 1, agent alone, 3 days, relative to DMSO control
[27] = Homo sapiens, Jurkat, 72 h, read-out: IC50 in Jurkat cells (μM), DNA damaging chemotherapeutic agent + No Compound 1

CN(N=O)C(=O)N[C@H]1C(O)O[C@H](CO)[C@@H](O)[C@@H]1O (mixture of isomers) [Streptozotocin]
IC50 [1, 24]: 391 ± 152 µM
IC50 ([1]; read-out: IC50 in DMS-114 cells (μM), DNA damaging chemotherapeutic agent + No Compound 1, agent alone, 3 days, relative to DMSO control): 3960 ± 2270 µM
IC50 [2, 25]: 360 ± 304 µM
IC50 ([2]; read-out: IC50 in Jurkat cells (μM), DNA damaging chemotherapeutic agent + No Compound 1, agent alone, 3 days, relative to DMSO control): 1014 ± 10 µM

Sc1ncnc2nc[nH]c12 [6-Mercaptopurine]
Combination effect in the presence of Compound 1 [3]: less than additive effect

O=NN(CCCl)C(=O)NCCCl [Carmustine]
IC50 [1, 26]: 33.3 ± 7.3 µM
IC50 [1, 24]: 11.5 ± 3.6 µM
Fold change (IC50 in DMS-114 cells) [1]: 6.12 ± 7.5
IC50 [2, 27]: 2.97 ± 1.1 µM
IC50 [2, 25]: 3.13 ± 0.49 µM
Fold change (IC50 in Jurkat cells) [2]: 0.93 ± 0.21

COCCOCCOCCOCCOC(=O)OC[n+]1ccc(NC(=NC#N)NCCCCCCOc2ccc(Cl)cc2)cc1.[Cl-] [Compound 2, 1-[2-(2-(2-(2-Methoxyethoxy)-ethoxy)-ethoxy)-ethoxy-carbonyloxymethyl]-4-[N′-cyano-N″-(6-(4-chlorophenoxy)-hexyl)-N-guanidino]-pyridinium chloride]
Mortality by day 5 ([4]; then nicotinic acid 90 mg/m^2/h for 4 h (Group 2)): 0/4
Mortality by day 5 ([4]; then nicotinic acid 90 mg/m^2/h for 24 h (Group 3)): 0/5
Mortality by day 5 ([4]; then saline, no nicotinic acid (Group 1), 650 mg/kg): 3 of the 5 and 3/5
Tumor growth compared to vehicle ([5]; Compound 2 150 mg/kg IV 24 hours infusion from day eight, observation 23 days): statistically significant reduction in tumor growth
Tumor growth compared to vehicle ([6]; Compound 2 150 mg/kg IV 24 hours infusion from day fifteen, observation 22 days): statistically significant reduction in tumor growth
Tumor growth compared to vehicle ([6]; Compound 2 650 mg/kg IV 24 hours infusion): significant reduction in tumor growth
Mortality in treatment group ([6]; Compound 2 650 mg/kg IV 24 hours infusion, tumor-bearing mice): mortality of a mouse in this treatment group
Mortality by day 11 ([7]; Compound 2 250 mg/kg intramuscular QD × 5, no nicotinic acid, 250 mg/kg): 3 of the 5 and 3/5
Mortality by day 11 ([7]; Compound 2 250 mg/kg intramuscular QD × 5, nicotinic acid pre-treatment 200 mg/kg IV QD × 5): 0/5
Mortality by day 11 ([7]; Compound 2 250 mg/kg intramuscular QD × 5, nicotinic acid pre-treatment 200 mg/kg PO QD × 5): 0/5
Mortality by day 11 ([7]; Compound 2 250 mg/kg intramuscular QD × 5, nicotinic acid pre-treatment 200 mg/kg SC QD × 5): 0/5

O=P1(N(CCCl)CCCl)NCCCO1 (stereo not shown) [Cyclophosphamide]
Combination effect in the presence of Compound 1 [3]: less than additive effect

O=C(/C=C/c1cccnc1)NCCCCC1CCN(C(=O)c2ccccc2)CC1 [FK866, (E)-N-[4-(1-benzoylpiperidin-4-yl)butyl]-3-(pyridin-3-yl)acrylamide]
Inhibition of human NMPRT [8]: potent

CC(=O)O[C@H]1C(=O)[C@@]2(C)[C@H]([C@H](OC(=O)c3ccccc3)[C@]3(O)C[C@H](OC(=O)[C@H](O)[C@@H](NC(=O)c4ccccc4)c4ccccc4)C(C)=C1C3(C)C)[C@]1(OC(C)=O)CO[C@@H]1C[C@@H]2O [Paclitaxel]
Combination effect in the presence of Compound 1 [3]: less than additive effect

CNNCc1ccc(C(=O)NC(C)C)cc1 [Procarbazine]
Combination effect in the presence of Compound 1 [3]: less than additive effect

NC(=O)c1ncn([C@@H]2O[C@H](CO)[C@@H](O)[C@H]2O)n1 [Ribavirin]
IC50 [1, 26]: 172 µM
IC50 [1, 24]: 173 µM
Fold change (IC50 in DMS-114 cells) [1]: 0.99
IC50 [2, 27]: 63.3 ± 10 µM
IC50 [2, 25]: 15.5 ± 3.1 µM
Fold change (IC50 in Jurkat cells) [2]: 4.09 ± 0.16

Cn1nnc2c(C(N)=O)ncn2c1=O [Temozolomide]
IC50 [1, 26]: 339 ± 190 µM
IC50 [1, 24]: 50.1 ± 7.83 µM
Fold change (IC50 in DMS-114 cells) [1]: 2.53 ± .11
IC50 [2, 27]: 212 ± 135 µM
IC50 [2, 25]: 158 ± 125 µM
Fold change (IC50 in Jurkat cells) [2]: 1.46 ± 0.26

NC(=O)c1cccnc1 [nicotinamide]
Concentrations rescuing viability relative to those required for NA rescue [9]: 1,000 ×

O=C(O)c1cccnc1 [nicotinic acid]
Rescue from decline in NAD^+ levels [10]: can rescue
Rescue from NF-κB inhibition [11]: can rescue
Rescue from Compound 1 induced cytotoxicity by nicotinic acid [12]: rescue
Effect of nicotinic acid on the anti-tumor activity of Compound 2 ([5]; nicotinic acid 120 mg/kg 4 hours infusion after Compound 2 150 mg/kg): able to inhibit the anti-tumor activity of Compound 2
Effect of niacin on the anti-tumor activity of Compound 2 ([6]; niacin 120 mg/kg 4 hours after Compound 2 150 mg/kg): unable to inhibit the anti-tumor activity of Compound 2
Effect of niacin on the anti-tumor activity of Compound 2 ([6]; niacin 120 mg/kg 4 hours after Compound 2 650 mg/kg): did not inhibit the anti-tumor activity of Compound 2
Percentage of sarcomas not being rescued ([13]; 13 sarcoma cell lines, Compound 1 with nicotinic acid): 60%
Neuroblastoma and glioblastoma cell lines not rescued by nicotinic acid ([13]; Compound 1 induced cytotoxicity): Two out of three
Number of sarcoma cell lines not rescued by nicotinic acid ([13]; out of 13 sarcoma cell lines tested, Compound 1 with 0.01, 0.1 and 1 mM nicotinic acid): 8
Rescue from Compound 1 induced cytotoxicity by nicotinic acid [14]: not rescued
Rescue from Compound 1 induced cytotoxicity by nicotinic acid [15]: not rescued
Rescue from Compound 1 induced cytotoxicity by nicotinic acid [16]: not rescued
Rescue from Compound 1 induced cytotoxicity by nicotinic acid [17]: not rescued
Rescue from Compound 1 induced cytotoxicity by nicotinic acid [18]: not rescued
Rescue from Compound 1 induced cytotoxicity by nicotinic acid [19]: not rescued
Rescue from Compound 1 induced cytotoxicity by nicotinic acid [20]: not rescued
Rescue from Compound 1 induced cytotoxicity by nicotinic acid [21]: not rescued
Rescue from Compound 1 induced cytotoxicity by nicotinic acid [22]: not rescued
Rescue from Compound 1 induced cytotoxicity by nicotinic acid [23]: not rescued
